Measured values: patent US20140147411A1, “METHODS OF TREATING CANCER AND TESTING MUTATION ZYGOSITY RELATED THERETO” (U.S. GOVERNMENT represented by the UNITED STATES DEPARTMENT …, priority 2012, published 2014)

How the values were obtained:
melanoma cell lines = test: MHC induction by IFN-γ with PI3K/mTOR inhibitor in melanoma cell lines, flow cytometry; settings: BEZ235 0.5 μM, MHC class I and class II, melanoma cell lines of FIG. 4
Description: Fold induction of cell surface MHC class I was calculated by dividing averaged MFI values for cells treated as indicated along the x-axis by averaged MFI values of cells treated with vehicle (DMSO) alone. […] MHC class I and class II levels were assessed as in part A.
BEZ235 a dual PI3K/mammalian target of rapamycin inhibitor was used.

AKT (serine 473) = test: AKT phosphorylation in the melanoma cell model system; format: cell-based; settings: BEZ235
A375 melanoma cells = test: Cell surface MHC class I, B2M and MHC class II by flow cytometry in A375 cells after interferon
Description: A representative western blot is shown. A375 cells were pre-treated with vehicle (DMSO) or 10 μM of PLX4720 60 minutes prior to the addition of IFN-γ (100 U/ml). Whole cell lysates were prepared 24 hours later and levels of phospho-ERK (Thr 202/Tyr 204) and total ERK protein were analyzed by western blot. B, A representative flow cytometry histogram is shown. A375 cells were pre-treated with vehicle (DMSO, black line, unfilled) or 10 μM PLX4720 (black dotted line) for 60 minutes prior to the addition of IFN-γ (10 U/ml). Control cells were left untreated (gray filled). Cell surface MHC class I was analyzed using flow cytometry 72 hours later using an antibody that recognizes a shared epitope on HLA-A, B and C molecules. Cells stained with an isotype control antibody are shown (black filled). C, Averaged mean fluorescence intensity (MFI) from three independent flow cytometry experiments is shown (y-axis) and treatments are indicated along the x-axis. The error bars represent the SEM. (*, p<0.05; two-tailed paired Student's t test, as compared to cells treated with IFN-γ and pre-treated with DMSO).
A representative western blot is shown. […] Cell lysates were prepared 72 hours later and levels of total ERK and phospho-ERK (Thr 202/Tyr 204) protein analyzed by western blot. […] Cell surface MHC class I (HLA-A, B, C), B2M, and MHC class II (HLA-DR) levels were analyzed 72 hours later using flow cytometry. Values represent the average mean fluorescence intensity (MFI) for three independent experiments and error bars represent the SEM. […] GAPDH levels are shown as a loading control. D, Induction of HLA-A, HLA-DR, CIITA and NLRC5 mRNA in A375 cells. […] Control cells were treated only with vehicle (DMSO). Steady state mRNA levels were measured using quantitative real-time RT-PCR 72 hours later and are expressed as fold over vehicle (DMSO) treated cells. Error bars represent SEM from at least 3 independent experiments. (*, p<0.05, **, p<0.01, 2-tailed paired Student's t test, as compared to cells treated with IFN-γ and pre-treated with DMSO)
Error bars represent the SEM. […] Flow cytometry was used to select transfected (GFP positive) and non-transfected (GFP negative) cells and MHC class I levels were measured on these two cell populations. Average values from three independent experiments are shown. MHC class I levels are expressed as the % of MHC class I on control cells (cells non-transfected using the empty vector plasmid). […] Cells stained with an isotype control antibody are shown in black filled.

[1] = tested on: phospho-ERK (Thr 202/Tyr 204); test: ERK phosphorylation by western blot in A375 cells; format: cell-based; settings: 10 μM PLX4720, western blot, 24 hours
Description: A representative western blot is shown. A375 cells were pre-treated with vehicle (DMSO) or 10 μM of PLX4720 60 minutes prior to the addition of IFN-γ (100 U/ml). Whole cell lysates were prepared 24 hours later and levels of phospho-ERK (Thr 202/Tyr 204) and total ERK protein were analyzed by western blot. […] The error bars represent the SEM.
A representative western blot is shown. […] Cell lysates were prepared 72 hours later and levels of total ERK and phospho-ERK (Thr 202/Tyr 204) protein analyzed by western blot. […] GAPDH levels are shown as a loading control. […] Control cells were treated only with vehicle (DMSO).

SKMEL-5 cells = test: Cell surface MHC by flow cytometry in SKMEL-5 cells after IFN-γ; settings: SKMEL5 cells (heterozygous for BRAFV600E), vemurafenib 0.5 μM, 72 hours
Description: (§1) Cell surface MHC class I (HLA-A, B and C, top panels) and MHC class II (HLA-DR, lower panels) levels were measured 72 hours later using flow cytometry. […] Fold induction of cell surface MHC class I was calculated by dividing averaged MFI values for cells treated as indicated along the x-axis by averaged MFI values of cells treated with vehicle (DMSO) alone. Fold inductions for heterozygous cell lines (MALME-3M, SKMEL-3, and SKMEL-5) were averaged together (gray bars) as were the fold inductions for three homozygous (white bars) cell lines (A375, HT-144, and SKMEL-28). […] The DMSO-treated cells (gray diamonds) from part A are compared to those treated with BEZ235 (0.5 μM, black squares). MHC class I and class II levels were assessed as in part A.

SKMEL-3 cells = test: Cell surface MHC by flow cytometry in SKMEL-3 cells after IFN-γ; settings: SKMEL3 cells (heterozygous for BRAFV600E), vemurafenib 0.5 μM, 72 hours
Description: as §1

CIITA mRNA = settings: SKMEL-28 cells, vemurafenib 0.5 μM, IFN-γ 20 U/ml
Description: as §1

MALME-3M cells = test: Cell surface MHC by flow cytometry in MALME-3M cells after IFN-γ; settings: MALME-3M cells (heterozygous for BRAFV600E), vemurafenib 0.5 μM, 72 hours
Description: as §1

[2] = tested on: BRAFV600E heterozygous cell lines (MALME-3M, SKMEL-3, and SKMEL-5); test: Fold MHC class I induction averaged over BRAFV600E heterozygous cell lines; settings: MFI over vehicle (DMSO) alone
Description: as §1

[3] = tested on: SKMEL-2 (BRAF codon 600 wild-type) cells; test: Cell surface MHC by flow cytometry in SKMEL-2 cells after IFN-γ
Description: Values represent the average mean fluorescence intensity (MFI) for three independent experiments and error bars represent the SEM. […] Control cells were treated only with vehicle (DMSO). […] Error bars represent SEM from at least 3 independent experiments.

[4] = tested on: BRAFV600E homozygous cell lines (A375, HT-144, and SKMEL-28); test: Fold MHC class I induction averaged over BRAFV600E homozygous cell lines; settings: MFI over vehicle (DMSO) alone
Description: The y-axis represents average MFI for at least three independent experiments except those for MeWo and SKMEL-5 which are the average of two independent experiments. […] Fold induction of cell surface MHC class I was calculated by dividing averaged MFI values for cells treated as indicated along the x-axis by averaged MFI values of cells treated with vehicle (DMSO) alone. […] MHC class I and class II levels were assessed as in part A.

[5] = A375 cells, sorafenib 10 μM prior to IFN-γ 2000 U/ml, not statistically significant (ANOVA)

Molecule: Cn1c(=O)n(-c2ccc(C(C)(C)C#N)cc2)c2c3cc(-c4cnc5ccccc5c4)ccc3ncc21 [BEZ235]
- induction of MHC molecules by IFN-γ (melanoma cell lines): did not enhance the induction of MHC molecules by IFN-γ, rather, it attenuated MHC induction in some of the cell lines examined
- phosphorylation of AKT (serine 473) (AKT (serine 473)): reduced the phosphorylation of AKT (serine 473)

Molecule: CNC(=O)c1cc(Oc2ccc(NC(=O)Nc3ccc(Cl)c(C(F)(F)F)c3)cc2)ccn1 [sorafenib]
- induction of MHCI molecules by IFN-γ (A375 melanoma cells; [5]): enhanced the induction of MHCI molecules
- induction of the MHCII molecule HLA-DR by IFN-γ (A375 melanoma cells; [5]): decreased the induction of the MHCII molecule HLA-DR

Molecule: CCCS(=O)(=O)Nc1ccc(F)c(C(=O)c2c[nH]c3ncc(Cl)cc23)c1F [PLX4720]
- induction of MHCI molecules by IFN-γ (A375 melanoma cells; A375 cells, 10 μM PLX4720 60 minutes prior to IFN-γ (10 U/ml), 72 hours): enhanced the induction of MHCI molecules by IFN-γ
- levels of ERK phosphorylation [1]: reduced levels of ERK phosphorylation

Molecule: CCCS(=O)(=O)Nc1ccc(F)c(C(=O)c2c[nH]c3ncc(-c4ccc(Cl)cc4)cc23)c1F [vemurafenib]
- induction of MHCI molecules by IFN-γ (SKMEL-5 cells): no effect
- induction of MHCII molecules by IFN-γ (SKMEL-5 cells): no effect
- induction of MHCI molecules by IFN-γ (SKMEL-3 cells): no effect
- induction of MHCII molecules by IFN-γ (SKMEL-3 cells): no effect
- time after the addition of IFN-γ at which the effect on CIITA mRNA was most pronounced (CIITA mRNA): 48 h
- induction of MHCI molecules by IFN-γ (MALME-3M cells): no effect
- induction of MHCII molecules by IFN-γ (MALME-3M cells): no effect

B1: IFN-γ: a type II interferon, cytokine, potent inducer of MHC expression (protein, UniProt P01579 24-161, looked up)
Interferon gamma: QDPYVKEAENLKKYFNAGHSDVADNGTLFLGILKNWKEESDRKIMQSQIVSFYFKLFKNFKDDQSIQKSVETIKEDMNVKFFNSNKKKRDDFEKLTNYSVTDLNVQRKAIHELIQVMAELSPAAKTGKRKRSQMLFRG
- MHCI cell surface expression (A375 melanoma cells; A375 cells treated with IFN-γ alone, flow cytometry): lead to an induction of MHCI cell surface expression
- fold increase of MHCI levels by IFN-γ [2]: around four
- cell surface MHCI, MHCII and B2M protein levels [3]: increases in cell surface MHCI, MHCII and B2M protein levels
- fold increase of MHCI levels by IFN-γ [4]: around four
